# Strand notation (5' to 3'): a small letter for the sugar, then the base; units joined by * are phosphorothioate-linked, units joined directly phosphodiester-linked; [ ] holds rarer units or linkages, { } end groups; capitals alone tell only the bases. e = 2'-O-(2-methoxyethyl) (MOE); k = constrained ethyl (cEt); [5mC] = 5-methylcytosine; d = 2'-deoxy (DNA)
# Experiments:
# human PKK mRNA [1] = assay: Antisense inhibition of human PKK mRNA in HepaRG cells, 1,000 nM, MOE/deoxy/cEt oligonucleotides (Example 3); assay type: cell-based
# Method: Additional antisense oligonucleotides were designed targeting a PKK nucleic acid and were tested for their effects on PKK mRNA in vitro.
# The chimeric antisense oligonucleotides in the tables below were designed as deoxy, MOE and cEt gapmers. The gapmers are 16 nucleosides in length wherein the nucleoside have either a MOE sugar modification, a cEt sugar modification, or a deoxy modification. The ‘Chemistry’ column describes the sugar modifications of each oligonucleotide. ‘k’ indicates an cEt sugar modification; the number indicates the number of deoxynucleosides; otherwise, indicates a deoxynucleoside; and ‘e’ indicates a 2′-O-methoxyethyl modification. The internucleoside linkages throughout each gapmer are phosphorothioate linkages. All cytosine residues throughout each oligonucleotide are 5-methylcytosines. “Start site” indicates the 5′-most nucleoside to which the gapmer is targeted in the human gene sequence. “Stop site” indicates the 3′-most nucleoside to which the gapmer is targeted in the human gene sequence.
# Cultured HepaRG™ cells at a density of 20,000 cells per well were transfected using electroporation with 1,000 nM antisense oligonucleotide. After a treatment period of approximately 24 hours, RNA was isolated from the cells and PKK mRNA levels were measured by quantitative real-time PCR. Human primer probe set RTS3454 was used to measure mRNA levels. ISIS 531231 was also included in this assay. PKK mRNA levels were adjusted according to total RNA content, as measured by RIBOGREEN®. The antisense oligonucleotides were tested in a series of experiments that had similar culture conditions. Results are presented as percent inhibition of PKK, relative to untreated control cells.
# human PKK mRNA [2] = assay: Antisense inhibition of human PKK mRNA in HepaRG cells, 5,000 nM (Example 2); assay type: cell-based
# How it was run: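 qRT-PCR (RTS3454) read-out, RIBOGREEN-normalized; % inhibition vs untreated cells. HepaRG, 20,000 cells/well, electroporation, 5,000 nM ASO, ~24 h.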
# [3] = Table 21 experiment, HepaRG cells, electroporation with 1,000 nM antisense oligonucleotide, approx. 24 hours, PKK mRNA by RT-PCR (RTS3454), relative to untreated control cells
# [4] = Table 28, HepaRG cells, 1,000 nM antisense oligonucleotide, human PKK mRNA
# [5] = HepaRG cells, electroporation with 1,000 nM antisense oligonucleotide, approximately 24 hours, primer probe set RTS3454, relative to untreated control cells, experiment of Table 23
# [6] = Table 19, HepaRG cells, electroporation with 1,000 nM antisense oligonucleotide, approximately 24 hours, PKK mRNA by RT-PCR (RTS3454), relative to untreated control cells
# [7] = PKK mRNA, HepaRG cells, 1,000 nM antisense oligonucleotide, Table 31
# [8] = Table 27, HepaRG cells, 1,000 nM antisense oligonucleotide, human PKK mRNA
# [9] = HepaRG cells, 1,000 nM antisense oligonucleotide, Table 29
# [10] = Table 13, human PKK mRNA in HepaRG cells, 5-10-5 gapmers
# [11] = Table 8, HepaRG cells, electroporation with 5,000 nM antisense oligonucleotide, approx. 24 hours, PKK mRNA by RT-PCR (RTS3454), relative to untreated control cells
# [12] = HepaRG cells, 5,000 nM antisense oligonucleotide, 5-10-5 gapmers, Table 16
# [13] = HepaRG cells, 5,000 nM antisense oligonucleotide, 5-10-5 gapmers, Table 17
substance,measurement,setting,value
547821 (e[5mC]*eA*kA*dA*d[5mC]*d[5mC]*dT*dT*dT*dT*d[5mC]*dT*d[5mC]*k[5mC]*kA*eT; antisense) [compound 547821],% inhibition,human PKK mRNA [1]; [3],44%
547826 (eT*eT*k[5mC]*dG*dA*dT*dG*dT*dA*d[5mC]*dT*dT*dT*kT*kG*eG; antisense) [compound 547826],% inhibition,human PKK mRNA [1]; [3],31%
548503 (antisense e[5mC]*e[5mC]*kA*dT*d[5mC]*dT*dA*d[5mC]*dT*d[5mC]*d[5mC]*d[5mC]*d[5mC]*k[5mC]*kA*eT) [compound 548503],% inhibition,human PKK mRNA [1]; [4],9%
548291 (e[5mC]*e[5mC]*kT*dG*dT*dT*dA*dG*dA*dG*dT*dT*dG*kG*k[5mC]*e[5mC]; antisense) [compound 548291],% inhibition,"human PKK mRNA [1]; HepaRG cells, electroporation with 1,000 nM antisense oligonucleotide, approx. 24 hours, PKK mRNA by RT-PCR (RTS3454), relative to untreated control cells, Table 26 experiment",35%
547949 (eG*eT*kG*dT*dT*dT*dT*d[5mC]*dT*dT*dG*dA*dG*kG*kA*eG; antisense) [compound 547949],% inhibition,human PKK mRNA [1]; [5],6%
547934 (e[5mC]*eT*k[5mC]*dG*dA*dT*dT*dT*dT*d[5mC]*d[5mC]*dA*dT*kA*k[5mC]*eA; antisense) [compound 547934],% inhibition,human PKK mRNA [1]; [5],38%
548083 (eA*eG*kG*dG*dA*d[5mC]*d[5mC]*dA*d[5mC]*d[5mC]*dT*dG*dA*kA*kT*e[5mC]; antisense) [compound 548083],% inhibition,human PKK mRNA [1]; [6],0%
548621 (antisense eG*eA*kA*d[5mC]*dA*d[5mC]*dA*dT*d[5mC]*dA*dG*dG*dG*kA*kT*eT) [compound 548621],% inhibition,human PKK mRNA [1]; [7],33%
548506 (antisense eG*eA*kA*dG*d[5mC]*d[5mC]*dA*dT*dT*d[5mC]*dA*d[5mC]*dT*kG*k[5mC]*eA) [compound 548506],% inhibition,human PKK mRNA [1]; [4],32%
547950 (eG*eG*kT*dG*dT*dT*dT*dT*d[5mC]*dT*dT*dG*dA*kG*kG*eA; antisense) [compound 547950],% inhibition,human PKK mRNA [1]; [5],49%
548362 (antisense eG*eA*k[5mC]*dA*dA*d[5mC]*d[5mC]*d[5mC]*dA*dT*d[5mC]*dA*dG*kT*kT*eG) [compound 548362],% inhibition,human PKK mRNA [1]; [8],33%
548677 (antisense eT*e[5mC]*kA*d[5mC]*d[5mC]*dT*dG*dT*dG*dA*dG*dT*dA*kA*k[5mC]*e[5mC]) [compound 548677],% inhibition,human PKK mRNA [1]; [7],40%
548530 (antisense eA*eT*kA*dA*dT*dA*dG*dA*dG*dG*d[5mC]*dA*dG*k[5mC]*k[5mC]*eA) [compound 548530],% inhibition,human PKK mRNA [1]; [4],50%
548440 (antisense e[5mC]*e[5mC]*kT*dA*dT*dA*dA*d[5mC]*dA*dG*dT*dA*dT*k[5mC]*kA*e[5mC]) [compound 548440],% inhibition,"human PKK mRNA [1]; Table 30, human PKK mRNA, HepaRG cells, 1,000 nM antisense oligonucleotide",32%
548604 (eG*eT*kG*dG*dT*dG*dG*dG*dA*dT*dT*dG*dG*kT*kG*e[5mC]; antisense) [compound 548604],% inhibition,human PKK mRNA [1]; [9],22%
548105 (antisense e[5mC]*eA*kT*dG*dT*dA*d[5mC]*dT*d[5mC]*dA*dG*d[5mC]*dG*kA*k[5mC]*eT) [compound 548105],% inhibition,human PKK mRNA [1]; [6],49%
548342 (antisense eG*eG*kA*dA*dG*dA*d[5mC]*dT*dT*d[5mC]*d[5mC]*d[5mC]*dT*k[5mC]*kT*eG) [compound 548342],% inhibition,human PKK mRNA [1]; [8],0%
548563 (antisense eA*eA*kA*d[5mC]*d[5mC]*dA*dT*dG*dA*dA*dT*dT*dA*kG*kG*eT) [compound 548563],% inhibition,human PKK mRNA [1]; [9],20%
546808 (eA*eA*eA*eA*eT*dG*dA*d[5mC]*dA*d[5mC]*d[5mC]*dA*dA*dA*dA*eT*eT*e[5mC]*eG*e[5mC]; antisense) [compound 546808],% inhibition,human PKK mRNA [2]; [10],0%
547417 (eT*e[5mC]*e[5mC]*eT*eT*dA*d[5mC]*dA*dG*dT*d[5mC]*dT*dT*d[5mC]*dT*eG*eG*eG*eA*eG; antisense) [compound 547417],% inhibition,human PKK mRNA [2]; [11],68%
546791 (eG*eA*eT*eG*e[5mC]*dA*dT*dG*d[5mC]*dA*dG*d[5mC]*dA*dA*dT*eA*e[5mC]*eA*eG*eG; antisense) [compound 546791],% inhibition,human PKK mRNA [2]; [10],52%
547471 (antisense e[5mC]*e[5mC]*eT*eT*eT*d[5mC]*dT*d[5mC]*d[5mC]*dT*dT*d[5mC]*dG*dA*dG*eA*eA*eG*e[5mC]*e[5mC]) [compound 547471],% inhibition,"human PKK mRNA [2]; Table 9 experiment, HepaRG cells, 20,000 cells per well, electroporation with 5,000 nM antisense oligonucleotide, approx. 24 hours, PKK mRNA by RT-PCR (RTS3454), relative to untreated control cells",58%
same,% inhibition,"human PKK mRNA [2]; Table 10 experiment, HepaRG cells, 20,000 cells per well, electroporation with 5,000 nM antisense oligonucleotide, approx. 24 hours, PKK mRNA by RT-PCR (RTS3454), relative to untreated control cells",43%
546211 (antisense eG*eG*e[5mC]*eA*eA*d[5mC]*d[5mC]*dA*dA*dT*dT*dT*d[5mC]*dT*dG*eA*eA*eA*eG*eG) [compound 546211],% inhibition,"human PKK mRNA [2]; HepaRG cells, electroporation with 5,000 nM antisense oligonucleotide, approximately 24 hours, PKK mRNA by RT-PCR (RTS3454), relative to untreated control cells, Table 6 experiment",42%
547510 (antisense eA*eT*eG*eA*eG*dG*dA*d[5mC]*d[5mC]*d[5mC]*d[5mC]*d[5mC]*d[5mC]*dA*dG*eG*e[5mC]*eT*e[5mC]*eA) [compound 547510],% inhibition,"human PKK mRNA [2]; HepaRG cells, electroporation, 5,000 nM antisense oligonucleotide, approx. 24 hours, primer probe set RTS3454, relative to untreated control cells, Table 11",40%
547695 (antisense eA*e[5mC]*eT*eG*eT*d[5mC]*d[5mC]*dT*dA*dT*dA*dA*d[5mC]*dT*dA*eT*eT*eA*e[5mC]*eA) [compound 547695],% inhibition,human PKK mRNA [2]; [12],31%
547552 (antisense e[5mC]*eT*e[5mC]*e[5mC]*e[5mC]*d[5mC]*dA*dT*dG*d[5mC]*dA*dT*dA*d[5mC]*dT*e[5mC]*eG*e[5mC]*e[5mC]*eT) [compound 547552],% inhibition,"human PKK mRNA [2]; HepaRG cells, electroporation, 5,000 nM antisense oligonucleotide, approx. 24 hours, primer probe set RTS3454, relative to untreated control cells, Table 12",53%
547724 (eG*eA*eT*eG*e[5mC]*dA*dT*d[5mC]*d[5mC]*dA*dA*d[5mC]*dA*d[5mC]*dT*eT*eA*e[5mC]*e[5mC]*e[5mC]; antisense) [compound 547724],% inhibition,human PKK mRNA [2]; [13],16%
547017 (eG*eG*eT*eA*eG*dG*dT*dG*dG*dT*dG*dG*dG*dA*dT*eT*eG*eG*eT*eG; antisense) [compound 547017],% inhibition,human PKK mRNA [2]; [13],61%
547669 (eA*e[5mC]*eA*eA*e[5mC]*dT*dA*dT*dA*dA*d[5mC]*dA*dG*dT*dA*eT*e[5mC]*eA*e[5mC]*eT; antisense) [compound 547669],% inhibition,"human PKK mRNA [2]; human PKK mRNA, HepaRG cells, 5-10-5 motif oligonucleotides targeting SEQ ID NO: 1 and 10",0%
546267 (e[5mC]*e[5mC]*eT*eT*eA*d[5mC]*dA*dG*dT*d[5mC]*dT*dT*d[5mC]*dT*dG*eG*eG*eA*eG*eT; antisense) [compound 546267],% inhibition,human PKK mRNA [2]; [11],72%
547569 (eA*e[5mC]*eT*eA*e[5mC]*d[5mC]*dA*dT*dT*dT*dG*dG*dG*dT*dT*eG*eG*eT*eA*eG; antisense) [compound 547569],% inhibition,human PKK mRNA [2]; [10],9%
546240 (eG*eT*eA*eA*eA*dG*dT*dT*d[5mC]*dT*dT*dT*dT*dG*d[5mC]*eA*eG*eG*eT*eT; antisense) [compound 546240],% inhibition,"human PKK mRNA [2]; Table 7, HepaRG cells, electroporation with 5,000 nM antisense oligonucleotide, approx. 24 hours, PKK mRNA by RT-PCR (RTS3454), relative to untreated control cells",23%
547444 (antisense e[5mC]*eT*eA*eT*eA*dG*dA*dT*dG*d[5mC]*dG*d[5mC]*d[5mC]*dA*dA*eA*e[5mC]*eA*eT*e[5mC]) [compound 547444],% inhibition,human PKK mRNA [2]; [11],71%
547691 (antisense eA*e[5mC]*eT*eG*eT*dA*dA*d[5mC]*dA*dA*dT*dA*dT*d[5mC]*dA*e[5mC]*eT*eG*eT*e[5mC]) [compound 547691],% inhibition,human PKK mRNA [2]; [12],36%
546144 (e[5mC]*eA*e[5mC]*eA*eG*dG*dA*dA*dA*d[5mC]*dT*dG*dT*dA*dG*e[5mC]*eA*eA*eA*e[5mC]; antisense) [compound 546144],% inhibition,"human PKK mRNA [2]; HepaRG cells, electroporation with 5,000 nM antisense oligonucleotide, approximately 24 hours, PKK mRNA by RT-PCR (RTS3454), relative to untreated control cells, Table 5 experiment",75%

# Reference: US11840686B2, “Modulation of prekallikrein (PKK) expression” (Ionis Pharmaceuticals, Inc., priority 2013, dated 2023)
